Experimental data: patent publication US20240217936A1, “5-BENZY[…] AND PREPARATION METHOD THEREFOR AND USE THEREOF” (WEST CHINA HOSPITAL, SICHUAN UNIVERSITY, priority 2021, published 2024)
Structures can show the parent of a compound that is named as a salt.

Assays:
Male SD rats [1] = assay: Sedative and hypnotic effects after oral administration (gavage, righting reflex); format: in vivo, rat; design: key to Onset time / Duration: —: Disappearance of righting reflex was not observed; settings: for Onset time / Duration: gavage, 0.16 μmoL/kg; for Onset time: disappearance of righting reflex; for Duration: until recovery of righting reflex
Description: Each test drug was administered by gavage, at a dosage of 0.16 μmoL/kg for each drug. After gavage, the disappearance of the righting reflex was used as a sign of the hypnotic effect induced by the drug, and the recovery of the righting reflex was used as a sign of drug failure. The onset time and duration of the drug were observed.

Male SD rats [2] = assay: Blood pressure change after tail vein injection (mean arterial pressure); settings: dosage 2× ED50, injection within 15 seconds, 60 min recording, rats under isoflurane
Description: Male SD rats weighing 250-300 g were randomly divided into groups, with 10 rats in each group. General anesthesia was maintained by inhaling isoflurane. By intubating via femoral artery, blood pressure was monitored using the BL-420N biological signal collection and analysis system. minutes after blood pressure stabilization, the baseline mean arterial pressure (MAP0) was measured. Subsequently, the physiological saline solution of each test drug was injected via the tail vein (the dosage of each drug was the same as that in Experiment example 2, with a unified injection […] volume of 1 mL). […] All prodrug molecules were injected within 15 seconds. After injection of each drug, the change in blood pressure was continuously recorded for 60 min. […] The difference MAPΔ+ between the baseline mean arterial pressure (MAP0) and the highest mean arterial pressure (MAPmax) during the 60 min measurement time was calculated; the difference MAPΔ− between the baseline mean arterial pressure (MAP0) and the lowest mean arterial pressure (MAPmin) during the 60 min measurement time was also obtained; both of the difference values were used to calculate the maximum increase rate of mean arterial pressure +Δ%=MAPΔ+/MAP0*100% and the maximum decrease rate of mean arterial pressure −Δ%=MAPΔ−/MAP0*100%, respectively. The maximum increase rate of mean arterial pressure +Δ% and the maximum decrease rate −Δ% reflect the degree of blood pressure change that the body experienced after administration. The larger the value, the greater the blood pressure change that the body experienced.

Male SD rats [3] = assay: Hypnotic effect after tail vein injection (loss of righting reflex); format: in vivo, rat; settings: for ED50: Rattus norvegicus, 50% of the dose for the disappearance of righting reflex in rats, tail vein injection; for Onset time: tail vein injection of 2× ED50, loss of righting reflex; for Onset time / Duration: rats; for Duration: tail vein injection of 2× ED50, until recovery of righting reflex
Description: Male SD rats, weighing 250-300 g, were randomly divided into groups, with 10 rats in each group. […] The onset times and the duration of hypnosis were recorded.

[4] = Degradation of prodrug in rat plasma (release of dexmedetomidine, HPLC); format: in vitro ADME; settings: 37° C.
Description: The test prodrug was formulated as a 1 mg/mL of physiological saline solution, and then 100 μL of the prodrug solution was added to 900 μL of rat plasma. The test solution was vortexed for 30 s before incubation at 37° C. 50 μL of drug-containing plasma was collected at 0.5 min, 1 min, 2 min, 3 min, 5 min, 10 min, 15 min, 20 min, 30 min, and 60 min, respectively, to which was immediately added 150 μL of acetonitrile to terminate the enzymatic reaction, followed by adding the solution of internal standard telmisartan in methanol (30 μL, 20 μg/mL). Then, the resultant solution was centrifuged at 20000 rpm and 4° C. for 10 min. 100 μL of the supernatant was injected for detection by HPLC, and the concentration of dexmedetomidine was determined by an internal standard method. The degradation rate of the prodrug was calculated based on the concentration of dexmedetomidine. The chromatographic conditions are: Swell XDB C18 column (150 mm×4.6 mm, 5 μm); column temperature 30° C.; using gradient elution (see Table 1), mobile phase A: methanol, mobile phase B: 0.1% trifluoroacetic acid in water, and mobile phase C: acetonitrile; detection wavelength: 220 nm; flow rate: 1.0 mL/min; injection volume: 30 μL; retention time: 4.7 minutes for dexmedetomidine and 6.7 minutes for internal standard telmisartan. The linear range of dexmedetomidine: 2.5-100 μg/mL. Instruments: Waters 2695 high-performance liquid chromatograph, Waters 2996 photodiode array detector.

Compound | Onset time (Male SD rats [1]) | Duration (Male SD rats [1]) | +Δ % (The maximum increase rate of blood pressure) (Male SD rats [2]) | −Δ % (The maximum decrease rate of blood pressure) (Male SD rats [2]) [%] | ED50 (Male SD rats [3]) [mg/kg] | Onset time (Male SD rats [3]) [min] | Duration (Male SD rats [3]) [min] | Degradation rate of prodrug % ([4]; 0.5 min) [%] | Degradation rate of prodrug % ([4]; 1 min) [%] | Degradation rate of prodrug % ([4]; 2 min) [%] | Degradation rate of prodrug % ([4]; 3 min) [%] | Degradation rate of prodrug % ([4]; 5 min) [%] | hypnotic effect by oral administration (Male SD rats [1]; equimolar doses, oral) | Degradation rate of prodrug % ([4]; 10 min) [%] | Degradation rate of prodrug % ([4]; 15 min) [%] | Degradation rate of prodrug % ([4]; 20 min) [%] | Degradation rate of prodrug % ([4]; 30 min) [%] | Degradation rate of prodrug % ([4]; 60 min) [%]
Cc1cccc([C@H](C)c2cn(COC(=O)OC(C)C)cn2)c1C [Compound 7] | 9 ± 4 min | 22 ± 8 min |  |  |  |  |  |  |  |  |  |  |  |  |  |  |  | 
CC(=O)OCn1cnc([C@@H](C)c2cccc(C)c2C)c1 [Compound 1-HCl] | 15 ± 6 min | 17 ± 8 min | *25 ± 12% | 43 ± 10 | 0.035 | 3.9 ± 1.5 | 42 ± 9 | 33 | 68 | 95 | 100 |  |  |  |  |  |  | 
CCC(=O)OCn1cnc([C@@H](C)c2cccc(C)c2C)c1 [Compound 10] | 13 ± 6 min | 15 ± 7 min |  |  |  |  |  |  |  |  |  |  |  |  |  |  |  | 
Cc1cccc([C@H](C)c2cn(C(=O)OCC(C)C)cn2)c1C [Compound 4-HCl] | 14 ± 8 min | 20 ± 13 min | 34 ± 14% | 38 ± 9 | 0.038 | 2.3 ± 0.9 | 44 ± 8 | 31 | 86 | 97 | 100 | 100 |  |  |  |  |  | 
CC(=O)OC(C)n1cnc([C@@H](C)c2cccc(C)c2C)c1 (some centres unmarked) [Compound 17] | 23 ± 5 min | 9 ± 4 min |  |  |  |  |  |  |  |  |  |  |  |  |  |  |  | 
Cc1cccc([C@H](C)c2c[nH]cn2)c1C.Cl [Dexmedetomidine hydrochloride, reference compound] | — | — |  |  | 0.018 | 1.5 ± 0.5 | 53 ± 11 |  |  |  |  |  | could not produce a hypnotic effect |  |  |  |  | 
COC(=O)COC(=O)OCn1cnc([C@@H](C)c2cccc(C)c2C)c1 [Compound 23] | 28 ± 5 min | 8 ± 2 min |  |  |  |  |  |  |  |  |  |  |  |  |  |  |  | 
COC(=O)OCn1cnc([C@@H](C)c2cccc(C)c2C)c1 [Compound 13] | 11 ± 5 min | 21 ± 9 min |  |  |  |  |  |  |  |  |  |  |  |  |  |  |  | 
Cc1cccc([C@H](C)c2cn(COP(=O)(OC(C)(C)C)OC(C)(C)C)cn2)c1C [Compound 12, (S)-(4-(1-(2,3-dimethylphenyl)ethyl)-1H-imidazo-1-yl)methyl di-tert-butyl phosphate] | 16 ± 7 min | 11 ± 4 min |  |  |  |  |  |  |  |  |  |  |  |  |  |  |  | 
CCC(=O)OC(C)n1cnc([C@@H](C)c2cccc(C)c2C)c1 (some centres unmarked) [Compound 18-HCl] |  |  | 29 ± 12% | 34 ± 8 | 0.036 | 2.4 ± 0.9 | 41 ± 10 | 17 | 33 | 42 | 48 | 54 |  | 59 | 64 | 69 | 72 | 75
COC(=O)OCn1cnc([C@@H](C)c2cccc(C)c2C)c1 [Compound 13-HCl] |  |  | *16 ± 8% | 39 ± 7 | 0.025 | 4.1 ± 1.3 | 36 ± 7 | 16 | 44 | 67 | 79 | 90 |  | 96 | 100 |  |  | 
CCCOC(=O)n1cnc([C@@H](C)c2cccc(C)c2C)c1 [Compound 11-HCl] |  |  | *25 ± 7% | 41 ± 8 | 0.026 | 2.6 ± 0.3 | 47 ± 8 | 26 | 57 | 74 | 75 | 82 |  | 88 | 95 | 100 |  | 
Cc1cccc([C@H](C)c2cn(COC(=O)C(C)(C)C)cn2)c1C [Compound 3-HCl] |  |  | *13 ± 6% | 41 ± 8 | 0.059 | 2.6 ± 1.1 | 50 ± 10 | 36 | 73 | 87 | 96 | 100 |  |  |  |  |  | 
CCOC(=O)CCC(=O)OCn1cnc([C@@H](C)c2cccc(C)c2C)c1 [Compound 27-HCl] |  |  | *25 ± 13% | 41 ± 9 | 0.019 | 1.4 ± 0.5 | 52 ± 9 | 52 | 58 | 66 |  | 78 |  | 86 | 97 | 100 |  | 
Cc1cccc([C@H](C)c2cn(COC(=O)OC3CCC3)cn2)c1C [Compound 14-HCl] |  |  | 31 ± 6% | 36 ± 6 | 0.031 | 3.9 ± 2.1 | 51 ± 7 | 53 | 80 | 85 | 98 | 100 |  |  |  |  |  | 
